The values below come from article PMC6050274, “Buparlisib is a brain penetrable pan-PI3K inhibitor” (Scientific Reports, 2018).

Data set [1] in a line: Brain and tissue penetration after i.v. administration in wildtype and P-gp/BCRP knockout mice. Conditions: 2 mg/kg i.v. Type of data set: in vivo, FVB mice. The procedure: To study whether P-gp and BCRP attenuate buparlisib brain penetration in vivo, we measured the brain and plasma concentration in wildtype (WT), Abcg2^−/−, Abcb1a/b^−/− and Abcb1a/b; Abcg2^−/− mice 1 hour after i.v. administration of 2 mg/kg buparlisib.
Figure 2 The impact of P-gp and BCRP on the brain and tissue penetration of buparlisib. Buparlisib was administered intravenously to wildtype, Abcg2^−/−, Abcb1a/b^−/− and Abcb1a/b;Abcg2^−/− mice at a dose of 2 mg/kg. One hour after injection, blood and tissues were collected for LC-MS/MS analysis. […] All data are represented as mean ± SD (n = 4).
(§1) The pharmacokinetics of buparlisib were analysed in WT, Abcg2^−/−, Abcb1a/b^−/− and Abcb1a/b; Abcg2^−/− FVB mice. All knockout mice strains have been developed within our institute[41]–[43]. For i.v. administration, buparlisib was dissolved in DMSO and injected at a dose of 2 mg/kg. For oral administration, buparlisib was formulated in DMSO:Cremophor EL:water (1:1:8 v/v/v) and administered at 1, 2 or 5 mg/kg as indicated. Tail vein bleeding was used to collect blood at intermediate time points, whereas at the last time point blood was drawn by cardiac puncture and various tissue were collected. Plasma was obtained from whole blood by centrifugation (5 min, 5,000 rpm, 4 °C). After weighing, tissues were homogenized using a FastPrep®-24 (MP-Biomedicals, NY) in 1% (w/v) bovine serum albumin in water. Buparlisib was extracted from plasma and tissue homogenate by liquid-liquid extraction with ethyl acetate using AZD8055 as an internal standard.
Buparlisib was measured in samples from in vitro transport assays and in vivo pharmacokinetic studies using an LC-MS/MS system comprised of an UltiMate 3000 LC Systems (Dionex, Sunnyvale, CA) and an API 4000 mass spectrometer (Sciex, Framingham, MA). Samples were run through a Securityguard C18 pre-column (Phenomenex, Utrecht, The Netherlands) prior to separation on a ZORBAX Extend-C18 column (Agilent, Santa Clara, CA). Elution was done using a in a 5 minute gradient from 20% to 95% B (mobile phase A was 0.1% HCOOH in water (v/v) and mobile phase B was methanol). 95% B was maintained for 3 min followed by re-equilibration at 20% B. Multiple reaction monitoring was performed at 411.3/367.2 (buparlisib) and 418.2/138.4 (AZD8055). Analyst® 1.6.2 software (AB Sciex; Foster City, CA) was used for system control and data analysis.
As described in detail before, CETA results were analysed with the General linear model repeated measures procedure of SPSS (v22; SPSS Inc, Chicago, IL)[25]. PK solver was used to determine pharmacokinetic parameters. The standard error of the oral bioavailability was calculated using the formula below: SEF=F(SEAUCp.o./AUCp.o.)^2+(SEAUCi.v./AUCi.v.)^2 Buparlisib concentrations in WT and transporter knockout mice in vivo were compared using one-way analysis of variance followed by post hoc Bonferroni tests. Statistical differences between the buparlisib PK parameters in male and female mice were calculated as Bonferroni corrected p-values using multiple Student’s t-tests. Differences were considered statistically significant when p < 0.05.

A short description of data set [2]: Plasma and brain levels after oral administration in wildtype mice. In kind it is in vivo, FVB mice. The procedure: First, we could confirm that buparlisib also achieves excellent brain penetration after oral administration, since the observed brain-plasma ratio in WT FVB mice was in line with those obtained following i.v. administration (Figs 2C, 3A).
Figure 3 Buparlisib has excellent intracranial target engagement and oral bioavailability. (A) Buparlisib was orally administered to wildtype mice at a dose of 1 mg/kg, 2 mg/kg or 5 mg/kg. One hour after injection, blood and tissues were collected for LC-MS/MS analysis. Buparlisib plasma and brain levels increase dose-dependently, yielding similar and excellent brain-plasma ratios at all dose levels that were tested. (B) Immunoblotting of brain tissue lysates from (A). […] (C) Plasma-time curves of male and female wildtype mice following intravenous (2 mg/kg) or oral (5 mg/kg) administration. […] The oral bioavailability of buparlisib is excellent, since oral and intravenous administration yielded similar dose-adjusted AUCs (see Table 1). All data are represented as mean ± SD (n = 4).
as §1, with “Buparlisib was extracted from plasma and tissue homogenate by liquid-liquid extraction with ethyl acetate using AZD8055 as an internal standard.” left out
Buparlisib was measured in samples from in vitro transport assays and in vivo pharmacokinetic studies using an LC-MS/MS system comprised of an UltiMate 3000 LC Systems (Dionex, Sunnyvale, CA) and an API 4000 mass spectrometer (Sciex, Framingham, MA). […]

For the compound `Nc1cc(C(F)(F)F)c(-c2cc(N3CCOCC3)nc(N3CCOCC3)n2)cn1` [buparlisib], in data set [1] (1 hour), the “brain concentration compared with liver, kidney and spleen concentrations” value is recorded as “slightly higher”; the “kidney level compared with concurrent plasma level” value is recorded as “lower”; the “liver level compared with concurrent plasma level” value is “equal”; the “spleen level compared with concurrent plasma level” value is “lower”. In addition, the “differences among mouse strains in plasma and brain concentrations” value in data set [1] (1 hour, WT vs transporter knockout mice) is on record as “No differences”. Besides, the Kp at 1 h in data set [1] (FVB, mouse, brain/plasma, intravenous, all strains (WT, Abcg2-/-, Abcb1a/b-/-, Abcb1a/b;Abcg2-/-), read-out: brain-plasma ratio) was 1.5 to 2. Also, the Kp at 1 h in data set [2] (FVB, mouse, brain/plasma, other: intravenous and oral, i.v. 2 mg/kg and oral 1, 2, 5 mg/kg (Figs 2C, 3A), read-out: brain-plasma ratio) lay in the range of 1.5 to 2. Further, in data set [2] (FVB, mouse, plasma, 5 mg/kg oral, WT mice, 1 hour, read-out: plasma level), the concentration at 1 h is about 1200 ng/mL. Besides, the “change of plasma and brain concentrations with dose” value in data set [2] (oral 1, 2, 5 mg/kg, WT mice, 1 hour) is given as “dose-proportional increase”.
